Assay results from patent US11419335B2, “N-arylated analogues and uses thereof” (University of Florida Research Foundation, Incorporated, priority 2016, dated 2022).
Where two headings read alike, the source gives them in different places. Marks after values point to notes of the source that are not given here.

How the values were obtained:
[1] = system: Escherichia coli clinical isolate (UAEC-1); assay: MIC broth microdilution, UAEC-1; assay type: cell-based; details: for MIC UAEC-1: Table 4; for MIC: Table 1
Method: (§1) The minimum inhibitory concentration (MIC) for each tested compound was determined by the broth microdilution method as recommended by the Clinical and Laboratory Standards Institute (CLSI). In a 96-well plate, eleven two-fold serial dilutions of each compound were made in a final volume of 100 μL Luria Broth. Each well was inoculated with ˜10^5 bacterial cells at the initial time of incubation, prepared from a fresh log phase culture (OD600 of 0.5 to 1.0 depending on bacterial strain). The MIC was defined as the lowest concentration of compound that prevented bacterial growth after incubating 16 to 18 hours at 37° C. (MIC values were supported by spectrophotometric readings at OD600). DMSO served as our vehicle and negative control in each microdilution MIC assay. DMSO was serially diluted with a top concentration of 1% v/v.
as §1, with “for each compound was” for “for each tested compound was”, “Standards Institute (CLSI).^6 In a” for “Standards Institute (CLSI). In a”, “concentration of test compound that” for “concentration of compound that”, “37° C. The concentration range tested for each compound during this study was 0.10 to 100 μM. DMSO served” for “37° C. (MIC values were supported by spectrophotometric readings at OD600). DMSO served”, “1% v/v. All MIC values were obtained from a minimum of three independent experiments.” for “1% v/v.”

[2] = system: Klebsiella pneumoniae (ATCC 13883); assay: MIC broth microdilution, K. pneumoniae 13883; assay type: cell-based
Method: as §1
as §1, with “for each compound was” for “for each tested compound was”, “Standards Institute (CLSI).^6 In a” for “Standards Institute (CLSI). In a”, “concentration of test compound that” for “concentration of compound that”, “37° C. The concentration range tested for each compound during this study was 0.10 to 100 μM. DMSO served” for “37° C. (MIC values were supported by spectrophotometric readings at OD600). DMSO served”, “1% v/v. All MIC values were obtained from a minimum of three independent experiments.” for “1% v/v.”

C. albicans SC5314 = assay: Fungal MIC susceptibility assay, C. albicans; assay type: cell-based, Candida albicans; details: for C. albicans SC5314 MIC: Table 2B
Method: (§2) Fungal minimum inhibition concentrations (MICs) were determined using standard microdilution methods according to the Clinical and Laboratory Standards Institute document M27-A3. The test compound concentration ranged from 0.01 to 100 μM. Amphotericin B (AmB) and itraconazole (ITC) (Fisher Scientific) were included as positive controls. DMSO, the vehicle control, was used at ≤1% v/v for these experiments. The fungal M27-A3 standard MIC assay protocol requires the following inoculum preparation protocol: The organisms were cultured onto PDA medium at 35° C. The inoculum is prepared by picking five colonies from 24-hour old culture of Candida spp. or 48-hour old culture of C. neoformans. The inoculum was suspended in 5 ml of sterile water, the resulting suspension was vortexed for 15 seconds and the cell density adjusted (by adding more sterile water) to an OD530=0.30, which yields a suspension of 1×10^6 to 5×10^6 cells per mL. The suspension was diluted 50 times and then 20 times using RPMI 1640 medium to obtain the two times test inoculum (1×10^3 to 5×10^3 cells per mL). The following steps are the same with the standard bacterial MIC protocol using 96-well plates. NOTE: RPMI 1640 medium was used in the fungal MIC assay (for both cell inoculum and compound dilution).

[3] = system: C. albicans SC5314 biofilms; assay: MTT assay for fungal biofilm eradication (MBEC), C. albicans; assay type: cell-based, Candida albicans; details: Table 2B, 90% eradicated biofilm
Method: One colony was picked from a 24-hour old culture of Candida spp. or 48-hour old culture of C. neoformans and added to YPD liquid medium for inoculation and cultured at 37° C. overnight. Cells were then washed with PBS (Phosphate-buffered saline (10 mM potassium phosphate, 150 mM NaCl, pH 7.0)) and standardized to OD600=1.0. Microtiter wells were then treated with 50% FCS (Fetal calf serum) in PBS for at least 30 min at room temperature (FCS pre-treatment is not absolutely required for Candida spp.). The FCS was aspirated and microtiter wells were rinsed once with 200 μL PBS before 100 μL of the cell suspension was added to each microtiter well. The plate was then incubated statically at 37° C. for 2 hours. Non-adherent cells were then removed by aspiration and microtiter wells were washed with PBS twice to remove loosely associated cells.
The resulting cell culture was aspirated and wells were rinsed once with 200 μL PBS. Controls and compounds were diluted in YNB medium (200 μL) were added to microtiter wells.
Following incubation, the culture was aspirated and wells are rinsed twice with 200 μL PBS before 100 μL of MTT (0.5 mg/mL dissolved in PBS containing 1% glucose) was added to each microtiter well. The plate was then incubated at 37° C. for 30 min, or longer, until dark blue/black crystals formation could be observed (usually 2 hours at most). The MTT reaction was terminated by aspiration of the solution. The crystals were then solubilized by adding 100 μL of 40% acetic acid to the microtiter wells. Killing efficacies were monitored by eye or quantitatively measured using a plate reader (absorbance at 550 nm). MBEC values were determined as the lowest compound concentration leading to 90% eradicated biofilm. All MBEC values using the MTT assay were recorded from at least three independent experiments.

C. neoformans ATCC 66031 [4] = assay: Minimum fungicidal concentration assay, C. neoformans; assay type: cell-based; details: Table 2B
C. neoformans ATCC 66031 [5] = assay: Fungal MIC susceptibility assay, C. neoformans; assay type: cell-based; details: for C. neoformans 66031 MIC: Table 2B
Method: as §2

MRSA-2 biofilms = assay: Calgary Biofilm Device assay (MBC/MBEC), MRSA-2; assay type: cell-based, Staphylococcus aureus; details: Table 2A; CBD assay
Method: (§3) The lid of the Calgary device was then removed, washed and transferred to another 96-well plate containing 2-fold serial dilutions of the test compounds (the “challenge plate”). The total volume of media with compound in each well in the challenge plate is 150 μL. […] The lid was then removed from the challenge plate and MBC/MBEC values were determined using different final assays. […] The MBC values were determined as the concentration giving a lack of visible bacterial growth (i.e., turbidity). […] In select experiments, pegs from the Calgary device were removed from lead biofilm eradicators after final incubation, sonicated for 30 minutes in PBS and plated out to determine biofilm cell killing of lead biofilm-eradicating agents (i.e., colony forming unit per milliliter, CFU/mL).
(§4) Using a Calgary Biofilm Device, bacterial biofilms are established on pegs suspended to the bottom of a 96-well plate lid. Following biofilm establishment on lid pegs, lids are then transferred to new 96-well plates containing serial dilutions of test compound and allowed to incubate. After compound treatment, 96-well plate lids with pegs are once again transferred to 96-well plates containing fresh media. During this final phase of the assay, viable biofilms will grow and disperse planktonic cells into the media where they will grow and give a turbid well result. Conversely, wells that have no growth are a result of pegs that had eradicated bacterial biofilms. The lowest concentration at which no turbidity is observed is the minimum biofilm eradication concentration (MBEC). Using the Calgary Biofilm Device, both minimum biofilm eradication concentrations and minimum bactericidal concentrations (MBC) for planktonic bacterial can be determined using one assay from a single bacterial culture (FIG. 3A).

VRE ATCC 700221 biofilms = assay: Calgary Biofilm Device assay (MBC/MBEC), VRE 700221; assay type: cell-based, Enterococcus faecium; details: for VRE MBC / VRE MBEC: Table 2A; for VRE 700221 MBEC: biofilm
Method: as §3, §4

Row | SMILES | MIC UAEC-1 [1] | MIC K. pneu. 13883 ([2]; Table 4) | C. albicans SC5314 MIC (C. albicans SC5314) [µM] | MIC C. albicans SC5314 (C. albicans SC5314; Table 4, antifungal) [µM] | C. albicans SC5314 MBEC [3] | C. neoformans 66031 MBC (C. neoformans ATCC 66031 [4]) [µM] | C. neoformans 66031 MIC (C. neoformans ATCC 66031 [5]) [µM] | MIC C. neof 66031 (C. neoformans ATCC 66031 [5]; Table 4, antifungal) [µM] | MRSA-2 MBC (MRSA-2 biofilms) | MRSA-2 MBEC (MRSA-2 biofilms) | VRE MBC (VRE ATCC 700221 biofilms; CBD assay) | VRE MBEC (VRE ATCC 700221 biofilms; CBD assay) | other results
1 | CCCCCCCCCCCCCCCC[N+](C)(C)Cc1ccccc1.[Cl-] [BAC-16, reference compound] | 6.25 µM | 9.38a micromolar | 3.13 | 3.13 | 15.63 | 6.25 | 3.12 | 6.25 |  |  |  |  | 
2 | CCCCCCCCCCCCCCCCn1cc[n+](C)c1C.[I-] [Compound 8] | 12.5 µM | 12.5 µM | 3.13 | 3.13 | 15.63 | 6.25 | 1.56 | 6.25 | 11.7 µM | 23.5 µM | 3.9/3.9 μM | 3.9/3.9 μM | 
3 | CCCCCCCCCCCCCCCCn1cc[n+](CCO)c1C.[Br-] [Compound 11] | 12.5 µM | 18.8a micromolar | 3.13 | 3.13 | 7.82 | 3.13 | 1.56 | 6.25 | 11.7 µM | 31.3 µM | 3.0^a/ μM | 3.9 µM | 
4 | CCCCCCCCCCCCCCCCn1cc[n+](Cc2cccc(F)c2)c1C.[Br-] [Compound 18] |  |  |  |  |  |  |  |  | 93.8^a/93.8^a μM | 93.8^a/93.8^a μM | 5.85^a/ μM | 11.7^a μM | 
5 | CCCCCCCCCCCCCCCCn1cc(-c2ccccc2)[n+](C)n1.[I-] [Compound 30] |  |  |  |  |  |  |  |  | 31.3^b/31.3 μM | 31.3^b/31.3 μM |  |  | 
6 | CCCCCCCCCCCCCCCCn1cc[n+](Cc2ccccc2)c1C [NH125, 3-benzyl-1-hexadecyl-2-methyl-1H-imidazol-3-ium bromide, reference compound] | 18.8a micromolar |  |  |  |  |  |  |  |  |  |  |  | MIC ([1]; Escherichia coli): 18.8 µM; MIC ([2]; Klebsiella pneumoniae, ATCC13883, Table 1, read-out: MIC K. pneumoniae 13883): 18.8 µM; MIC ([2]; Klebsiella pneumoniae, ATCC13883, Table 4, read-out: MIC K. pneu. 13883): 18.8 µM; MIC (C. albicans SC5314; Candida albicans, SC5314, Table 4, antifungal): 3.13 µM; MIC (C. neoformans ATCC 66031 [5]; Cryptococcus neoformans, ATCC66031, Table 4, antifungal, read-out: MIC C. neof 66031): 3.13 µM; MBC (VRE ATCC 700221 biofilms; Enterococcus, Table 2, CBD assay, planktonic cells): 59 µM; VRE 700221 MBEC (VRE ATCC 700221 biofilms; Table 2, CBD assay): 11.7 µM
7 | CCCCCCCCCCCC[N+](C)(C)CC[N+](C)(C)CC[N+](C)(C)CCCCCCCCCCCC [QAC-10, reference compound] | 12.5 µM | 25 µM |  |  |  |  |  |  | 31.3 µM | 125 µM | 3.0^a/ μM | 3.0^a μM | MIC [1]: 12.5 µM; MIC ([2]; Table 1, read-out: MIC K. pneumoniae 13883): 25 µM; MBEC, VRE biofilms (VRE ATCC 700221 biofilms): 3.0 µM; VRE 700221 MBEC (VRE ATCC 700221 biofilms; Table 2, CBD assay): 3.0^a/3.0^a μM; VRE 700221 MBC (VRE ATCC 700221 biofilms; Table 2, CBD assay, planktonic cells): 3.0^a/3.0^a μM
